From article PMC9456400 (International Journal of Molecular Sciences, 2022)

Experiments:
[1] = tested on: H2228 NSCLC cell line (ALK rearrangement variant 3a/b); assay: MTT cell viability assay; conditions: read-out: IC50 (cell viability)
Method: (§2) Cell viability effects of lorlatinib were determined using the colorimetric MTT (3-4,5-dimethylthiazol-2-yl-2,5-diphenyl-tetrazolium bromide) reduction assay. Dose–response curves to graded concentrations of lorlatinib were plotted as a percentage of the control cell absorbance, which was obtained from control cells containing the vehicle (DMSO v/v) processed simultaneously. For each treatment, cell viability was evaluated using the following equation: (OD570 of the treated sample/OD570 of the untreated sample) × 100.

[2] = cited from earlier work
HepG2 cells = assay: Oil Red O staining of neutral lipids; type: cell-based, human; conditions: HepG2, acute exposure 48 h; silibinin 100 μmol/L as co-treatment with lorlatinib
Method: To confirm these findings, we employed an independent in vitro model of fatty liver disease involving non-tumorigenic HepG2 cells, which are routinely employed as an inducible fatty liver cell model to screen for therapeutic drugs to eliminate lipid accumulation.
(§1) For assessment of neutral lipid formation, cells were washed in PBS, fixed with 4% paraformaldehyde for 30 min, washed in distilled water, and then briefly incubated in 60% isopropanol. Following equilibration, cells were stained with a working solution (60%) of Oil Red O for 20 min. An Oil Red O stock solution was prepared by dissolving 0.35% w/v Oil Red O in 100 mL 100% isopropanol. HCS LipidTOX™ Green Neutral Lipid Stain (Invitrogen; Cat. #H34475) was employed as a second staining cocktail for visualization of intracellular neutral lipids. Formaldehyde fixation and preparing/using the labeling solution was carried out as per the manufacturer’s instructions.

[3] = tested on: ALK-negative A549 NSCLC cells; assay: MTT cell viability assay; conditions: read-out: IC50 (cell viability)
Method: as §2

Huh-7 cells [4] = assay: MTT cell viability assay; type: cell-based; conditions: Homo sapiens; Huh-7, MTT
Method: as §2

Huh-7 cells [5] = assay: Oil Red O and LipidTOX staining of neutral lipids; type: cell-based, human; conditions: Huh-7, chronic exposure 7 days; silibinin 10 μmol/L as co-treatment with lorlatinib
Method: We first employed a conventional index of fatty liver disease––the intracellular accumulation of neutral lipids (steatosis)––to confirm the ability of lorlatinib to trigger hypertriglyceridemia and hypercholesteremia.
as §1

[6] = tested on: H3122 NSCLC cell line (ALK rearrangement variant 1); assay: MTT cell viability assay; conditions: read-out: IC50 (cell viability)
Method: as §2

[7] = single 100 mg oral dose ref 46, 47

C[C@H]1Oc2cc(cnc2N)-c2c(nn(C)c2C#N)CN(C)C(=O)c2ccc(F)cc21 [lorlatinib, (10R)-7-amino-12-fluoro-2,10,16-trimethyl-15-oxo-10,15,16,17-tetrahydro-2H-8,4-(metheno)pyrazolo [4,3-h][2,5,11]-benzoxadiazacyclotetradecine-3-carbonitrile]
IC50 [1]: 0.9 ± 0.2 µM
Fraction metabolized during first-pass hepatic or pre-systemic metabolism ([2]; human, in vivo): 12%
Hepatic extraction ratio ([2]; human, in vivo): < 30%
Peak plasma concentration [2, 7]: > 2 µmol/L
Time to peak plasma concentration [2, 7]: 0.5 to 4 h
Accumulation of neutral lipids (lipid droplets) (HepG2 cells): greater number of larger lipid droplets than untreated cells
IC50 [3]: 19 ± 5 µM
IC50 (Huh-7 cells [4]): 22 ± 5 µM
Accumulation of neutral lipids (lipid droplets) (Huh-7 cells [5]): accumulated large amounts of lipid droplet-like neutral lipids
IC50 [6]: 0.003 ± 0.0002 µM
